Source: ChEMBL document CHEMBL1201862, “PubChem BioAssay data set” (2004)
The source made the active and inactive calls.

Assays:
[1] = biological target: T1, Sentrin-specific protease 1 (Homo sapiens, UniProt Q9P0U3); assay: Dose response confirmation of small molecule inhibitors of the catalytic domain of the SUMO protease, SENP1 in a FRET assay.; type: functional; conditions: read-out: IC50_Mean
[2] = biological target: T1, Sentrin-specific protease 1; assay: potency of human SENP1 inhibitors, dose response, biochemical, kinetic FRET (AID 651697); type: functional; conditions: read-out: IC50_Mean
[3] = miR-122 activators in hepatoma reporter cells, dose response, cell-based, Huh7 psiCHECK-miR122, Renilla luciferase, cherry-picked (AID 651956); type: functional;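 further: huh7 hepatoma cells stably carrying a psiCHECK-2 miR-122 sensor plasmid; renilla luciferase signal reporting endogenous miR-122 activity after 48 h compound exposure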
[4] = biological target: Tyrosine-protein phosphatase non-receptor type 11 (Homo sapiens, UniProt Q06124); assay: SHP2 phosphatase inhibition, dose response, selectivity assay for STEP inhibitor project, biochemical (AID 602367); type: functional; conditions: read-out: IC50_Mean
[5] = biological target: Dual specificity protein phosphatase 3 (Homo sapiens, UniProt P51452); assay: VHR phosphatase inhibition, dose response, selectivity assay for STEP inhibitor project, biochemical (AID 602374); type: functional; conditions: read-out: IC50_Mean
[6] = biological target: T2, Carboxy-terminal domain RNA polymerase II polypeptide A small phosphatase 1 (Homo sapiens, UniProt Q9GZU7); assay: inhibitors of CTDSP1, concentration-response testing, biochemical assay, absorbance-based, actives from ultra-high-throughput screening (AID 540297); type: functional
T2 sequence (Q9GZU7 whole entry): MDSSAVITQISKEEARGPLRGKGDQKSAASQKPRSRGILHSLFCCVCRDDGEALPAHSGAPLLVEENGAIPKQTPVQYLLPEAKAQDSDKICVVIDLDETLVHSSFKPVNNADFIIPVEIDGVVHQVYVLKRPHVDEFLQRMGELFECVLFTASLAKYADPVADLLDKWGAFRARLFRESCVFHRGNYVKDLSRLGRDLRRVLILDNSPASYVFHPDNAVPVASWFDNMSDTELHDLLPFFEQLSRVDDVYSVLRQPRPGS

[7] = biological target: Tyrosine-protein phosphatase non-receptor type 5 (Homo sapiens, UniProt P54829); assay: STEP phosphatase inhibitors, confirmation, biochemical, fluorescence intensity, uHTS hits (AID 602372); type: functional; conditions: read-out: IC50_Mean
[8] = ARNT/TACC3 interaction disruptors, potency, confirmation, biochemical, AlphaScreen, cherry-picked samples (AID 651703); type: functional, Homo sapiens;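 further: His-tagged ARNT PAS-B domain paired with GST-TACC3 E629A dimer coactivator fragment; potency of inhibitors that break up the complex and lower AlphaScreen signal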
[9] = biological target: T3, Streptokinase A (Streptococcus pyogenes serotype M1, UniProt P10520); assay: S. pyogenes streptokinase expression inhibitors, potency, dose response, plasminogen activation absorbance, OD405 (AID 1914); type: functional, Streptococcus pyogenes M1 GAS;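 further: secreted streptokinase activity via plasminogen activation per viability signal from cell pellet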
T3 sequence (P10520 whole entry): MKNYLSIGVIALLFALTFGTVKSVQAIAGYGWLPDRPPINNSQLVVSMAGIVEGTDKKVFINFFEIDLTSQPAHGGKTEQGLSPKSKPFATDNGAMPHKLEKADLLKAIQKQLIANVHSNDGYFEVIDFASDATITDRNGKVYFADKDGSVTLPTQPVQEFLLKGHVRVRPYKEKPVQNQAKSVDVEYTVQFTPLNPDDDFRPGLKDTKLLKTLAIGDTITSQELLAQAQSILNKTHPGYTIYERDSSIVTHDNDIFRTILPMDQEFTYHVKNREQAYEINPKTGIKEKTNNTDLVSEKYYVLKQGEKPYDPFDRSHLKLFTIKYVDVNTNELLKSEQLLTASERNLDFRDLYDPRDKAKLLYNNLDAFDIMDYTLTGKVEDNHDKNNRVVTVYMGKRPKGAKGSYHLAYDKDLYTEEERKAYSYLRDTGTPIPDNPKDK

[10] = tested on: Streptococcus; assay: Group A Streptococcus viability loss, dose response, counter-screen for streptokinase expression inhibitor project, luminescence, BacTiterGlo (AID 1915); type: functional, organism-based;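 further: potency for reduction of bacterial viability or growth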
[11] = biological target: Latent membrane protein 1 (Human herpesvirus 4 (strain B95-8), UniProt P03230); assay: TES1-eGFP NF-kB reporter inhibition versus Tet-On dsRED, dose response, selectivity assay for LMP1 NF-kB inhibitor project, imaging, HEK293T, dual-color eGFP/dsRED, cherry-picks (AID 588398); type: functional, cell-based
[12] = cytotoxicity toward NIH3T3 fibroblasts, dose response, counter-screen, cell-based, ATP luminescence, mouse fibroblasts (AID 2010); type: functional;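 further: cells exposed to compound for about 90 hours before reading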
[13] = tested on: HEK293; assay: inhibitors of LMP1-driven NF-kB reporter, dose response, cell-based, HEK293, luciferase, cherry-pick (AID 588343); type: functional; conditions: Homo sapiens
[14] = tested on: Streptococcus sp. 'group A'; assay: growth inhibition of control SK(-) GAS strain, dose response, counter-screen for streptokinase expression inhibitor project, luminescence, kanamycin, BacTiterGlo, confirmation (AID 1900); type: functional, organism-based
[15] = inhibitors of intracellular T. cruzi replication, confirmation, NIH3T3 host cells, beta-gal luminescence (AID 2044); type: functional, cell-based;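 further: intracellular parasites grown in NIH/3T3 mouse fibroblasts as host cells; luminescent beta-galactosidase reporter signal from transgenic T. cruzi replicating inside host cells; inhibitors lower the luminescence signal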
[16] = biological target: Hepatocyte nuclear factor 4-alpha (Homo sapiens, UniProt P41235); type: functional, cell-based;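 further: biochemical luminescence-based dose-response counterscreen measuring inhibition of HNF4 dimerization, run alongside a screen for blockers of ABHD5–perilipin-5 interaction; split luciferase complementation of HNF4 fusion proteins in cell lysate measuring dimerization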
[17] = biological target: Potassium voltage-gated channel subfamily KQT member 2 (Rattus norvegicus, UniProt O88943); assay: KCNQ2 potassium channel inhibitors, dose response, cell-based, automated electrophysiology, set II, rat KCNQ2 (AID 588637); type: functional
[18] = biological target: NAD-dependent protein deacylase sirtuin-5, mitochondrial (Homo sapiens, UniProt Q9NXA8); assay: SIRT5 desuccinylase inhibitors, dose response, biochemical, fluorescence imaging, cherry-pick, set 5 (AID 720591);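 further: desuccinylation of succinyl peptide AMC substrate read as fluorescence after trypsin release; potency of inhibitors that lower fluorescence and may act on trypsin instead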
[19] = biological target: T4, Probable nicotinate-nucleotide adenylyltransferase (Staphylococcus aureus (strain N315), UniProt P65502); type: functional, Staphylococcus aureus subsp. aureus N315; conditions: read-out: IC50_Mean;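 on IC50 Mean: confirmatory dose-response retesting of NadD inhibitor hits first found in an ultra-high-throughput screen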
[20] = biological target: T4, Probable nicotinate-nucleotide adenylyltransferase; type: functional, Staphylococcus aureus subsp. aureus N315
[21] = biological target: Serine/threonine-protein kinase MRCK alpha (Homo sapiens, UniProt Q5VT25); type: functional
[22] = biological target: Glycogen synthase kinase-3 alpha (Homo sapiens, UniProt P49840); type: functional;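 further: GSK3A result taken from a broad kinome-wide kinase panel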
[23] = biological target: Glycogen synthase kinase-3 beta (Homo sapiens, UniProt P49841); type: functional;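 further: value comes from a broad kinome profiling panel, with GSK3B as the panel member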
[24] = biological target: UDP-galactopyranose mutase (Mycobacterium tuberculosis, UniProt P9WIQ1); assay: Inhibitors of Mycobacterium tuberculosis UDP-galactopyranose mutase (UGM) enzyme Measured in Biochemical System Using Plate Reader - 2105-02_Inhibitor_Dose_CherryPick_Activity. [Related pubchem assays (depositor defined):AID504439]
[25] = biological target: Keap1/Nrf2 (Homo sapiens, UniProt Q14145); assay: Keap1-Nrf2 protein-protein interaction inhibitors, dose response, biochemical, fluorescence polarization, cherry-picked samples (AID 588683)
[26] = biological target: Beta-lactamase (Pseudomonas aeruginosa, UniProt Q79MP6);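 further: biochemical dose-response test of metallo-beta-lactamase enzyme inhibition, read out by epi-absorbance; purified recombinant IMP-1 metallo-beta-lactamase with nitrocefin as substrate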
[27] = biological target: T5, ORF 73 (Human herpesvirus 8, UniProt O40947); assay: inhibitors of C-LANA binding to LBS DNA, dose response, biochemical, fluorescence polarization, cherry-picked samples (AID 504725); set-up: species or system Human gammaherpesvirus 8;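 further: fluorescence polarization of a labeled DNA duplex reporting LANA DNA binding; potency is for inhibitors that block LANA binding to the DNA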
T5 sequence (O40947 whole entry): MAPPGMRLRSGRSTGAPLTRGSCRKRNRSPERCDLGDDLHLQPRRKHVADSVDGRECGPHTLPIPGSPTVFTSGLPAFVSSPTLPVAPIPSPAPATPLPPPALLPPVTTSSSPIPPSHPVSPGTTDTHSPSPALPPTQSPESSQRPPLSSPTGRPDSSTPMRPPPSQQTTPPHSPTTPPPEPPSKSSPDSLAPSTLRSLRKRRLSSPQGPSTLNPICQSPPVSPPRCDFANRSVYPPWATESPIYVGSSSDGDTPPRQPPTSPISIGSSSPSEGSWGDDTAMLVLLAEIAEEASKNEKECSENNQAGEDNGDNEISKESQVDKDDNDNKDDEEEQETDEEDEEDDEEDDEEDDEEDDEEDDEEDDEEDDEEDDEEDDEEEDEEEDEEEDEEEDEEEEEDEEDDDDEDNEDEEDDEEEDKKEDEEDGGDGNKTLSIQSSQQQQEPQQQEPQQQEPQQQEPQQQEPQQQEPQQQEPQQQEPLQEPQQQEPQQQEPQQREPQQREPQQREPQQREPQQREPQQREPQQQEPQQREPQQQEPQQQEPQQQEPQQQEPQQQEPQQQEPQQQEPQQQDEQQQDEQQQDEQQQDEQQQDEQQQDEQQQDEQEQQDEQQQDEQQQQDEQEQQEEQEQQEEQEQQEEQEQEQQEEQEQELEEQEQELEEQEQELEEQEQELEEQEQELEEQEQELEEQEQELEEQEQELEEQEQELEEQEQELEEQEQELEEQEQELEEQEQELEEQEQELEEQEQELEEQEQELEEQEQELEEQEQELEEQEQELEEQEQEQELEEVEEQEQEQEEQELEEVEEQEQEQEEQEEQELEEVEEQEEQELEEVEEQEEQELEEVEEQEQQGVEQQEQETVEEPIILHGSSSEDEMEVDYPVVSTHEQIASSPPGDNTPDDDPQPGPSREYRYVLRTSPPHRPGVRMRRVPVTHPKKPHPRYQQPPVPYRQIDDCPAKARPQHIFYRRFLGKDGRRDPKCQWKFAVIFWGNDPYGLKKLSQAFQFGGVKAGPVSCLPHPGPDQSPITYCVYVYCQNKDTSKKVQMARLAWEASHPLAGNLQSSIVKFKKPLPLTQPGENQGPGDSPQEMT

[28] = biological target: Beta-lactamase (Salmonella choleraesuis (strain SC-B67), UniProt Q5J463)
[29] = biological target: T6, Apoptotic protease-activating factor 1 (Homo sapiens, UniProt O14727); assay: SAR analysis of small molecule Activators of Apaf-1 in a Fluorescent assay.; type: functional; conditions: read-out: EC50_Mean;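 further: caspase-3 cleavage of fluorogenic Rh110 DEVD substrate downstream of apoptosome activation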
T6 sequence (O14727 whole entry): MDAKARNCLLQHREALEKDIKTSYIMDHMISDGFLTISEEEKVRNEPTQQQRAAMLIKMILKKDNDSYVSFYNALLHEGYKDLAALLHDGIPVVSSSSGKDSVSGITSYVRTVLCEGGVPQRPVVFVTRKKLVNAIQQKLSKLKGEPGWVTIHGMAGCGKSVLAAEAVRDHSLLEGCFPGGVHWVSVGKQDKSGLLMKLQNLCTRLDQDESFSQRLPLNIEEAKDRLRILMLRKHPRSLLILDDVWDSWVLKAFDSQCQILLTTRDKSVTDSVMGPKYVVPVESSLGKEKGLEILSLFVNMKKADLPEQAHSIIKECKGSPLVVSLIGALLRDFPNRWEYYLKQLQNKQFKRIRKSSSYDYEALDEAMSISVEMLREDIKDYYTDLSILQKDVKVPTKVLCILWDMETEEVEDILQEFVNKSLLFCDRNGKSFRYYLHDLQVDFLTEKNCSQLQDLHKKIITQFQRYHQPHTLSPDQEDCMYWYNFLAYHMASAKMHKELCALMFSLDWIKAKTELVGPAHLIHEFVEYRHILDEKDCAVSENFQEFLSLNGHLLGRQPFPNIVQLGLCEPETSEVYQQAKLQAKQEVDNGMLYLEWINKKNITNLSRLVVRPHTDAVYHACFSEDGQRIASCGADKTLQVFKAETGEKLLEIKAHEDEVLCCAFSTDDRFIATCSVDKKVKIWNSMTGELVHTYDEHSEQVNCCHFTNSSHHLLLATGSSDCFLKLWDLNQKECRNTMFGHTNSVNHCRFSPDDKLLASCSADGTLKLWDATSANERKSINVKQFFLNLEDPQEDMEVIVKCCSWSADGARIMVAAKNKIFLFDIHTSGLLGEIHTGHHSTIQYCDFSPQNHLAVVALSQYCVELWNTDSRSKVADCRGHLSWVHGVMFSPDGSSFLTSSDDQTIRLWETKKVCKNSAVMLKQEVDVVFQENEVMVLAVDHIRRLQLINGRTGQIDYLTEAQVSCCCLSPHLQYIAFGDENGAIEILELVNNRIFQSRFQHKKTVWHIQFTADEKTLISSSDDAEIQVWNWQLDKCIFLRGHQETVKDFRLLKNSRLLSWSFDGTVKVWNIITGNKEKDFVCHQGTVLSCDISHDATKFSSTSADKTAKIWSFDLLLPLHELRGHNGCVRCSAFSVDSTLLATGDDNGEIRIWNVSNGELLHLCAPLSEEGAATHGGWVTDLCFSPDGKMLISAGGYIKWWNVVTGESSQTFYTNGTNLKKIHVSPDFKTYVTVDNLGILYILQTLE

[30] = biological target: High affinity nerve growth factor receptor (Homo sapiens, UniProt P04629); type: functional;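 further: NTRK1 tested as one member of a kinome-wide profiling panel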
[31] = biological target: Cell division cycle 7-related protein kinase (Homo sapiens, UniProt O00311); type: functional;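 further: value obtained from a kinome-wide kinase panel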

T1 sequence (Q9P0U3 whole entry, the tested form may be a part): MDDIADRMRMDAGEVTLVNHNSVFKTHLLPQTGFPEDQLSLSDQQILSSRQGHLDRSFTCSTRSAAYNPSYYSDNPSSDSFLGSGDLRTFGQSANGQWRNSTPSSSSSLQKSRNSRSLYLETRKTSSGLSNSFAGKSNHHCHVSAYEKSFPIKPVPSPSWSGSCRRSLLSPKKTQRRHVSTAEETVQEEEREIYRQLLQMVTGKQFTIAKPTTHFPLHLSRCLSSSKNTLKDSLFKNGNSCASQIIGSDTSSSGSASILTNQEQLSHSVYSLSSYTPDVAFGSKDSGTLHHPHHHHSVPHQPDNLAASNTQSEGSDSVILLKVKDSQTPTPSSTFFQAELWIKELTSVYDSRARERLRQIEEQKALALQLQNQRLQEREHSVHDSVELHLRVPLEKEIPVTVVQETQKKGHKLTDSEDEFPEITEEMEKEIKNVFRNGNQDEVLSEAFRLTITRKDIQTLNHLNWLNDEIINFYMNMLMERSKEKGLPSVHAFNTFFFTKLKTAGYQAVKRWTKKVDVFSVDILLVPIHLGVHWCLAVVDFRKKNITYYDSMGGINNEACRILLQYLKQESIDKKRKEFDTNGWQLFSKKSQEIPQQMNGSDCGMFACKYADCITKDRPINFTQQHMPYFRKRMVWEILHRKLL
T4 sequence (P65502 whole entry): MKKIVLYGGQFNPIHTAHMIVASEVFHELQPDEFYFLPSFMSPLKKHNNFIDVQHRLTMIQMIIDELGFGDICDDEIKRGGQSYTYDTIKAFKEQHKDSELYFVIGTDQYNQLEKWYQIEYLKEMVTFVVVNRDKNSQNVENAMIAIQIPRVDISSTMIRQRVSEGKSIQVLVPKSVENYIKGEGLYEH
Sequence of UDP-galactopyranose mutase (P9WIQ1 whole entry): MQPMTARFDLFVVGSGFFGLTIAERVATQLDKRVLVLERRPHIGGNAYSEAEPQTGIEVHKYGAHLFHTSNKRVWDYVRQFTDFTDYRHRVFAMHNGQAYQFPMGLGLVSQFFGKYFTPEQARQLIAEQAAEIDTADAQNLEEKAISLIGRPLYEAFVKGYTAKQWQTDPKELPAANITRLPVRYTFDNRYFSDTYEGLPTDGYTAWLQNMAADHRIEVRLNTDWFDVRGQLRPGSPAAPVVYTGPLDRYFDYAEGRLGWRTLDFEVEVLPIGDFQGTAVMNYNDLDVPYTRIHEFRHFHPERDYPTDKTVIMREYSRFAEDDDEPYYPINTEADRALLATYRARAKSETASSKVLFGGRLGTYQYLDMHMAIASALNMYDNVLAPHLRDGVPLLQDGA
Sequence of Beta-lactamase (Salmonella choleraesuis (strain SC-B67), UniProt Q5J463) (Q5J463 whole entry): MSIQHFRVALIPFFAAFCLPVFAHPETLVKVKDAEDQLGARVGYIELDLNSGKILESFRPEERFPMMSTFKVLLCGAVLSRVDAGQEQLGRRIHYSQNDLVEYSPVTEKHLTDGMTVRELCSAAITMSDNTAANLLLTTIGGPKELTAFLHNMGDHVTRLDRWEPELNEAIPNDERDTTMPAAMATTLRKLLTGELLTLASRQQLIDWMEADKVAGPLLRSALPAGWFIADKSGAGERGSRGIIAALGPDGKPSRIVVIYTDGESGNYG
Sequence of Keap1/Nrf2 (Q16236 whole entry): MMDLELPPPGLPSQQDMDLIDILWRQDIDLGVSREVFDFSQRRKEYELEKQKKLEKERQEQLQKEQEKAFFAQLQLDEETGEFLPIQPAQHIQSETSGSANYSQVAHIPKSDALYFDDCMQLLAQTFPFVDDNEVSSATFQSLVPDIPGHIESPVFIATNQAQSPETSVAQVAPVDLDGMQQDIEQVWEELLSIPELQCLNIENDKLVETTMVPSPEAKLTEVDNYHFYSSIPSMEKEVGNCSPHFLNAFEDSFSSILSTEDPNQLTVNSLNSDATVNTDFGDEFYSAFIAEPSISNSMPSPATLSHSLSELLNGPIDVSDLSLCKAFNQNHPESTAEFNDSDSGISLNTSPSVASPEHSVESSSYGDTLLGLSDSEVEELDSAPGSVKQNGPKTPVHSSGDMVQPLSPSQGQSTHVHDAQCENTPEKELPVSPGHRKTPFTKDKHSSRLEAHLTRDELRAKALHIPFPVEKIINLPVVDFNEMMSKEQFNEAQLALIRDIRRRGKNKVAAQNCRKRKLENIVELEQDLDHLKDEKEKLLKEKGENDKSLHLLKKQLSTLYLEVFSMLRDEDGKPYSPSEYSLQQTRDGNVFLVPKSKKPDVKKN
Sequence of Keap1/Nrf2 (Q14145 whole entry): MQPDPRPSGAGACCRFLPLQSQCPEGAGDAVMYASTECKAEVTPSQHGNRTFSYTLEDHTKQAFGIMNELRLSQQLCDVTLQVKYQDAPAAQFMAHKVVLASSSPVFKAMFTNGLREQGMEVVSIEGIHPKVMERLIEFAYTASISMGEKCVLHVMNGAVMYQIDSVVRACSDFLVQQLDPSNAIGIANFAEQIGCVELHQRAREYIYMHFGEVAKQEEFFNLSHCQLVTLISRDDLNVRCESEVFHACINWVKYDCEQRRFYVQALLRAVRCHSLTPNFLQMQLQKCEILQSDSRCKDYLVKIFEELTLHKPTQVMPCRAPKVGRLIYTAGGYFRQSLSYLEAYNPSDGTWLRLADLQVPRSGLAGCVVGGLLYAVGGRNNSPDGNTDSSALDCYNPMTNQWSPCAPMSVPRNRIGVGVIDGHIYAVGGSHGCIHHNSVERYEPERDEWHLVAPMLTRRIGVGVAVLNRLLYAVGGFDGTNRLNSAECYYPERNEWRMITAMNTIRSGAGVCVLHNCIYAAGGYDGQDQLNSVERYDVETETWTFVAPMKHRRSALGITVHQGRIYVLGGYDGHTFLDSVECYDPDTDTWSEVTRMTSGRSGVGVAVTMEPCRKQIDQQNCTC
Sequence of Potassium voltage-gated channel subfamily KQT member 2 (O88943 whole entry): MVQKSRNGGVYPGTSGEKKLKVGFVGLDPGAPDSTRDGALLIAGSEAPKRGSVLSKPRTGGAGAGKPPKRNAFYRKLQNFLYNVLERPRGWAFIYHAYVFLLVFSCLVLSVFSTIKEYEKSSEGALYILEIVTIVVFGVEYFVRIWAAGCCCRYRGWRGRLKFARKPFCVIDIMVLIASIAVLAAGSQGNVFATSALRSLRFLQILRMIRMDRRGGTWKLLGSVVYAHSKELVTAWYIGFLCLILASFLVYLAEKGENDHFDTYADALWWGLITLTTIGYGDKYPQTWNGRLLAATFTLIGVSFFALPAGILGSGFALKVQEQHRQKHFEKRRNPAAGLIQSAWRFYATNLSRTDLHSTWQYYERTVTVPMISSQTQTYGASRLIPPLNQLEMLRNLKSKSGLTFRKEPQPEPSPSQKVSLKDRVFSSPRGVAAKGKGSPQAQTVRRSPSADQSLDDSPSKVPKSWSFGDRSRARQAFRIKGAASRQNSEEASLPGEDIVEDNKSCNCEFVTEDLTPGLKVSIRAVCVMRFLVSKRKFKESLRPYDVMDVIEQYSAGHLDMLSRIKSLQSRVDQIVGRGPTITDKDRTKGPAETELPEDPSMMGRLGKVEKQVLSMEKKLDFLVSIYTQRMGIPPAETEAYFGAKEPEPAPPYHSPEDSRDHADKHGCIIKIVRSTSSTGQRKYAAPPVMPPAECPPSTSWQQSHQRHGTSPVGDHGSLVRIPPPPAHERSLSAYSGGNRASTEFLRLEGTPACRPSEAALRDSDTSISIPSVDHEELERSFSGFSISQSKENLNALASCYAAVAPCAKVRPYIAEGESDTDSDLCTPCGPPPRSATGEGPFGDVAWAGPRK
Sequence of Tyrosine-protein phosphatase non-receptor type 11 (Q06124 whole entry): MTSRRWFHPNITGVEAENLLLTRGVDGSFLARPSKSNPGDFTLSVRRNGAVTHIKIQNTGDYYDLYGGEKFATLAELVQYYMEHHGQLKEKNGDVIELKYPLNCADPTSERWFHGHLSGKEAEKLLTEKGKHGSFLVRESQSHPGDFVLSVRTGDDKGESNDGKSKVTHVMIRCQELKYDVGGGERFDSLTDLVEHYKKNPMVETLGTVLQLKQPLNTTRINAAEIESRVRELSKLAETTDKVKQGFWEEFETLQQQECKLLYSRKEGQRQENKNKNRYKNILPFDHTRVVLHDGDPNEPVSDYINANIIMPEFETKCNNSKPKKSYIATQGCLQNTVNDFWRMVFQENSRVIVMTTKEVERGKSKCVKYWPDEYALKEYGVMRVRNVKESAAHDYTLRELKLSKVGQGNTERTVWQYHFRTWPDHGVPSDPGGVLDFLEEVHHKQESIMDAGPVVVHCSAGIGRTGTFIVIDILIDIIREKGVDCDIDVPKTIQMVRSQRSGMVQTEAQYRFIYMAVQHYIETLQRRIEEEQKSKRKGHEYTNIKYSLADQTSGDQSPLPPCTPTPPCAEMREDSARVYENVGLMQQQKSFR
Sequence of Hepatocyte nuclear factor 4-alpha (P41235 whole entry, the tested form may be a part): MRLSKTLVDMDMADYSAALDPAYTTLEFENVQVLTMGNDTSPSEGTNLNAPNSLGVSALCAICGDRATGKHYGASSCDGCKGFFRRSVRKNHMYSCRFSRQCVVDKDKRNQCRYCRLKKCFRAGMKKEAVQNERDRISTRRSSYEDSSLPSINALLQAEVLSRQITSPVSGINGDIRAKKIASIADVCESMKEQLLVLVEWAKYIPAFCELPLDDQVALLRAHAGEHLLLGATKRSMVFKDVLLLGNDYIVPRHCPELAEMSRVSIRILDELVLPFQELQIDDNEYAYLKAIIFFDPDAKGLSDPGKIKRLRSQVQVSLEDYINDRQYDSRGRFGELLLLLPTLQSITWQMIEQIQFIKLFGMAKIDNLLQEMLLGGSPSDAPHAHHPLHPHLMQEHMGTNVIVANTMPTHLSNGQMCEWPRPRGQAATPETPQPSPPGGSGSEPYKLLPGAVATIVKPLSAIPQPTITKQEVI
Sequence of Dual specificity protein phosphatase 3 (P51452 whole entry, the tested form may be a part): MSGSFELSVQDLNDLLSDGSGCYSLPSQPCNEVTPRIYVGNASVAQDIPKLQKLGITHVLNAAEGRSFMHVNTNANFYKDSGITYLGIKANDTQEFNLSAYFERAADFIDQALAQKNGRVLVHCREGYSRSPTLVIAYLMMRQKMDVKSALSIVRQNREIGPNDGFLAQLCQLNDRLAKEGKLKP

O=C1CC[C@@H]2C[C@@]3(C[C@@H]4CCN1[C@H]24)Nc1cc([N+](=O)[O-])ccc1N=C3NCc1ccccc1
IC50 [1]: 9.31 µM (active)
IC50 [2]: 18.3 µM (active)

CN1C(=O)c2cc(NC(=O)c3cccs3)ccc2OC[C@H]2O[C@H](CC(=O)NCCN3CCCCC3)CC[C@@H]21
AC50 [3]: 43.3 µM (active)

Cc1c(CC(=O)O)c(=O)oc2c(C)c(OCc3ccccc3Br)ccc12
IC50 [4]: 7.43 µM (active)
IC50 [5]: 6.67 µM (active)
IC50 [6]: 3.92 µM (active)
IC50 [7]: 13.4 µM (active)

O=C1c2cccnc2C(=O)N1Cc1ccc(S(=O)(=O)NCc2ccco2)s1
AC50 [8]: 98.4 µM (active)

CCCc1ccc(-c2cc(C(=O)N/N=C/c3ccc([N+](=O)[O-])o3)c3ccccc3n2)cc1
EC50 [9]: > 150 µM (not active)
EC50 [10]: 2.59 µM (active)
AC50 [11]: 112 µM (active)
EC50 [12]: 8.91 µM (active)
AC50 [13]: 2.89 µM (active)
EC50 [14]: 2.75 µM (active)
EC50 [15]: 0.194 µM (active)

COc1cc(/C=C/C(=O)c2ccc(Cl)s2)cc(OC)c1O
IC50 [16]: 6.66 µM (active)

Cc1csc2nc(CSc3ccc(Cl)cc3)cn12
IC50 [17]: 4.2 µM (active)

CCOC(=O)c1ccccc1NC(=O)c1ccc2c(SCC(=O)O)c3c(nc2c1)CCCC3
AC50 [18]: > 30 µM (inactive)
IC50 [19]: 25 µM (active)
IC50 [20]: 5.7 µM (active)

CC(=O)Nc1nonc1-n1nnc(C(=O)NN=Cc2cccs2)c1-c1ccccc1
Ki [21]: 10 µM (active)
Ki [22]: 3.16 µM (active)
Ki [23]: 6.31 µM (active)

Cc1cccc(N2C(=O)c3cccc4c(N)ccc(c34)C2=O)c1
AC50 [24]: 1.79 µM (active)
AC50 [25]: 1.82 µM (active)
IC50 [26]: 21.4 µM (inactive)
AC50 [27]: 5.93 µM (active)
IC50 [28]: 10.1 µM (inactive)

COC(=O)[C@@H]1COC(c2ccc(OC)c(C(F)(F)F)c2)=N1
EC50 [29]: > 100 µM (inactive)

NC(=O)c1ccc(-c2c[nH]c3nc(N)nc(NCc4c(F)cccc4F)c23)cc1
Ki [30]: 2.51 µM (active)
Ki [31]: 0.1 µM (active)
